From patent publication US20150266850A1 (E.I.DU PONT DE NEMOURS AND COMPANY, priority 2012, published 2015)
Marks after values point to notes of the source that are not given here.

Tests used:
[1] = Photostability Example: aqueous photolysis under xenon arc lamp simulating natural sunlight for 24 hours, percent remaining relative to dark controls; format: physicochemical; settings: 0.670 μg/mL in 80/20 10 mM pH 7 phosphate buffer/acetonitrile, xenon arc lamp 24 hours
Experimental: Aqueous photolysis data is a simple proxy for photostability under field conditions. The following aqueous photolysis data supports the enhanced photostability of the tolyl fungicides of the present invention.
Test compound (0.670 μg/mL) dissolved in 80/20 10 mM pH 7 phosphate buffer/acetonitrile is added to 2-mL borosilicate glass HPLC vials. The addition of 20% acetonitrile is intended to ensure solubility of compounds with low aqueous solubility. Samples are exposed to light in an Atlas Ci65 Burner photolysis chamber fitted with a xenon arc lamp (6500 W) to simulate natural sunlight for 24 hours and compared with samples wrapped in aluminum foil to protect them from light under the same conditions. The 24-hour irradiation is equivalent to ˜2.6 days of average Delaware summer sunlight exposure. Samples are analyzed by HPLC and results are reported as percent remaining based on peak area relative to the dark controls.

[2] = test system: Puccinia recondita f sp. tritici; assay: Test B: wheat leaf rust, preventive spray on wheat seedlings, visual disease rating; format: in vivo; settings: 100 = 100% disease control; for pest or weed control at 200 ppm / pest or weed control at 40 ppm: 192 h
Procedure, shortened: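 Test suspension in acetone/water 50/50 with 250 ppm Trem® 014, sprayed to run-off on wheat seedlings at 200 ppm (≈800 g/ha), or 40 or 50 ppm where marked. Inoculated next day with spores, held 24 h saturated at 20° C, then 7 days at 20° C; disease control rated visually, 0–100 versus controls.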

[3] = test system: Septoria tritici; assay: Test C: wheat leaf blotch, preventive spray on wheat seedlings, visual disease rating; format: in vivo; settings: 100 = 100% disease control; for pest or weed control at 200 ppm / pest or weed control at 40 ppm: Zymoseptoria tritici, 504 h
Procedure, shortened: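 Compounds in acetone (11% of final volume) suspended in acetone/water 50/50 with 250 ppm Trem® 014; 200 ppm (≈800 g/ha), some at 40 or 50 ppm, sprayed to run-off. Septoria tritici inoculated next day; 48 h saturated at 24° C., then 19 days at 20° C.; visual rating, 0–100% control vs untreated.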

[4] = test system: Septoria nodorum; assay: Test D: wheat glume blotch, preventive spray on wheat seedlings, visual disease rating; format: in vivo; settings: 100 = 100% disease control; for pest or weed control at 200 ppm / pest or weed control at 40 ppm: Parastagonospora nodorum, 216 h
Procedure, shortened: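 Preventive test: wheat seedlings sprayed to run-off with compound suspension (acetone/water with 250 ppm Trem 014; 200 ppm, some at 40 or 50 ppm), inoculated with Septoria nodorum next day. Held 48 h saturated at 20° C, then 7 days at 20° C; visual rating 0-100% disease control versus controls.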

[5] = test system: Botrytis cinerea; assay: Test E: tomato botrytis, preventive spray on tomato seedlings, visual disease rating; format: in vivo; settings: 100 = 100% disease control; for pest or weed control at 200 ppm / pest or weed control at 40 ppm: Botrytis cinerea, 120 h
Procedure, shortened: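 Compounds in acetone/water (50/50) with 250 ppm Trem 014, sprayed to run-off on tomato seedlings at 200 ppm (≈800 g/ha) unless marked 40 or 50 ppm. Inoculated next day with B. cinerea spores; 48 h saturated atmosphere at 20°C, then 3 days at 27°C; visual rating, 100 = full control vs controls.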

[6] = test system: Erysiphe graminis f. sp. tritici; assay: Test A: wheat powdery mildew, preventive spray on wheat seedlings, visual disease rating; format: in vivo; settings: 100 = 100% disease control; for pest or weed control at 200 ppm / pest or weed control at 40 ppm: Blumeria graminis, 192 h
Procedure, shortened: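 Wheat seedlings sprayed to run-off with compound in acetone/water with 250 ppm Trem 014 (200 ppm ≈ 800 g/ha; some at 40 or 50 ppm), inoculated next day with spore dust. After 8 days at 20° C, disease control rated visually, 0–100% relative to controls.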

COC(=O)NCc1cc(-n2ccc(-c3ccc(OC)cc3C)n2)ccc1F [10PP]
% Cmpd Remaining [1]: 64%

COC(=O)NCc1cc(-n2ccc(-c3ccc(OC)cc3C)n2)ccc1Cl [10P]
% Cmpd Remaining [1]: 0%

COC(=O)NCc1cc(-n2ncc(-c3ccc(OC)cc3OC)n2)ccc1Cl [17P]
% Cmpd Remaining [1]: 0%

COC(=O)NCc1cc(-c2ccn(-c3ccc(OC)cc3C)n2)ccc1Cl [18P]
% Cmpd Remaining [1]: 0%

COC(=O)NCc1cc(-n2ccc(-c3ccc(OC)cc3OC)n2)ccc1F [23PP]
% Cmpd Remaining [1]: 5%

COC(=O)NCc1cc(-n2ccc(-c3ccc(OC)cc3OC)n2)ccc1Cl [23P]
% Cmpd Remaining [1]: 0%

COC(=O)NCc1cc(-c2ccn(-c3ccc(OC)cc3OC)n2)ccc1Cl [24P]
% Cmpd Remaining [1]: 0%

COC(=O)NCc1cc(-n2ccc(-c3ccc(OC)cc3C)n2)ccc1C [Compound 10, methyl N-[[5-[3-(4-methoxy-2-methylphenyl)-1H-pyrazol-1-yl]-2-methylphenyl]-methyl]carbamate]
melting point: 97 to 99 °C | pest or weed control at 200 ppm ([2]; 200 ppm): 100% | pest or weed control at 200 ppm ([3]; 200 ppm): 100% | pest or weed control at 200 ppm ([4]; 200 ppm): 100% | % Cmpd Remaining [1]: 97% | pest or weed control at 200 ppm ([5]; 200 ppm): 97% | pest or weed control at 200 ppm ([6]; 200 ppm): 100%

COC(=O)NCc1cc(-n2ccc(-c3ccc(Cl)cc3OC)n2)ccc1C [Compound 11, methyl N-[[5-[3-(4-chloro-2-methoxyphenyl)-1H-pyrazol-1-yl]-2-methylphenyl]-methyl]carbamate]
melting point: 126 to 127 °C | pest or weed control at 200 ppm ([2]; 200 ppm): 100% | pest or weed control at 200 ppm ([3]; 200 ppm): 100% | pest or weed control at 200 ppm ([4]; 200 ppm): 100% | pest or weed control at 200 ppm ([5]; 200 ppm): 56% | pest or weed control at 200 ppm ([6]; 200 ppm): 100%

COC(=O)NCc1cc(-n2ncc(-c3ccc(OC)cc3OC)n2)ccc1C [Compound 17, methyl N-[[5-[4-(2,4-dimethoxyphenyl)-2H-1,2,3-triazol-2-yl]-2-methylphenyl]methyl]carbamate]
melting point: 132 to 135 °C | pest or weed control at 200 ppm ([2]; 200 ppm): 100% | pest or weed control at 200 ppm ([3]; 200 ppm): 100% | pest or weed control at 200 ppm ([4]; 200 ppm): 100% | % Cmpd Remaining [1]: 30% | pest or weed control at 200 ppm ([5]; 200 ppm): 33% | pest or weed control at 200 ppm ([6]; 200 ppm): 100%

COC(=O)NCc1cc(-c2ccn(-c3ccc(OC)cc3C)n2)ccc1C [Compound 18, methyl N-[[5-[1-(4-methoxy-2-methylphenyl)-1H-pyrazol-3-yl]-2-methylphenyl]methyl]carbamate]
melting point: 117 to 120 °C | pest or weed control at 200 ppm ([2]; 200 ppm): 100% | pest or weed control at 200 ppm ([3]; 200 ppm): 100% | % Cmpd Remaining [1]: 98% | pest or weed control at 200 ppm ([5]; 200 ppm): 44% | pest or weed control at 200 ppm ([6]; 200 ppm): 100%

COC(=O)NCc1cc(-n2ccc(-c3ccc(OC)cc3OC)n2)ccc1C [Compound 23, methyl N-[[5-[3-(2,4-dimethoxyphenyl)-1H-pyrazol-1-yl]-2-methylphenyl]methyl]carbamate]
pest or weed control at 200 ppm ([2]; 200 ppm): 100% | pest or weed control at 200 ppm ([3]; 200 ppm): 100% | pest or weed control at 200 ppm ([4]; 200 ppm): 100% | % Cmpd Remaining [1]: 54% | pest or weed control at 200 ppm ([5]; 200 ppm): 66% | pest or weed control at 200 ppm ([6]; 200 ppm): 100%

COC(=O)NCc1cc(-n2ccc(-c3ccc(Cl)cc3Cl)n2)ccc1C [Compound 31, methyl N-[[5-[3-(2,4-dichlorophenyl)-1H-pyrazol-1-yl]-2-methylphenyl]-methyl]carbamate]
melting point: 101 to 103 °C | pest or weed control at 200 ppm ([2]; 200 ppm): 100% | pest or weed control at 200 ppm ([3]; 200 ppm): 100% | pest or weed control at 200 ppm ([4]; 200 ppm): 100% | pest or weed control at 200 ppm ([5]; 200 ppm): 16% | pest or weed control at 200 ppm ([6]; 200 ppm): 100%

COC(=O)NCc1cc(-c2ncn(-c3ccc(OC)cc3OC)n2)ccc1C [Compound 54]
melting point: 174 to 177 °C | pest or weed control at 40 ppm ([2]; 40 ppm (*)): 100% | pest or weed control at 40 ppm ([3]; 40 ppm (*)): 49% | pest or weed control at 40 ppm ([4]; 40 ppm (*)): 100% | pest or weed control at 40 ppm ([5]; 40 ppm (*)): 49% | pest or weed control at 40 ppm ([6]; 40 ppm (*)): 99%

COC(=O)NCc1cc(-c2ncn(-c3ccc(OC)cc3Cl)n2)ccc1C [Compound 78]
melting point: 145 to 148 °C | pest or weed control at 40 ppm ([2]; 40 ppm (*)): 100% | pest or weed control at 40 ppm ([3]; 40 ppm (*)): 93% | pest or weed control at 40 ppm ([4]; 40 ppm (*)): 100% | pest or weed control at 40 ppm ([5]; 40 ppm (*)): 68% | pest or weed control at 40 ppm ([6]; 40 ppm (*)): 99%

COC(=O)NCc1cc(-c2ncn(-c3ccc(OC)cc3F)n2)ccc1C [Compound 79]
melting point: 164 to 166 °C | pest or weed control at 40 ppm ([2]; 40 ppm (*)): 100% | pest or weed control at 40 ppm ([3]; 40 ppm (*)): 95% | pest or weed control at 40 ppm ([4]; 40 ppm (*)): 100% | pest or weed control at 40 ppm ([5]; 40 ppm (*)): 76% | pest or weed control at 40 ppm ([6]; 40 ppm (*)): 100%

COC(=O)NCc1cc(-c2ncn(-c3ccc(F)cc3F)n2)ccc1C [Compound 117]
melting point: 156 to 159 °C | pest or weed control at 200 ppm ([2]; 200 ppm): 100% | pest or weed control at 200 ppm ([6]; 200 ppm): 100%

COC(=O)NCc1cc(-c2ncn(-c3ccc(C)cc3C)n2)ccc1C [Compound 118, methyl N-[[5-[1-(2,4-dimethylphenyl)-1H-1,2,4-triazol-3-yl]-2-methylphenyl]methyl]carbamate]
melting point: 148 to 151 °C | pest or weed control at 200 ppm ([2]; 200 ppm): 100% | pest or weed control at 200 ppm ([6]; 200 ppm): 99%

COC(=O)NCc1cc(-c2ncn(-c3ccc(Cl)cc3Cl)n2)ccc1C [Compound 119]
melting point: 152 to 155 °C | pest or weed control at 200 ppm ([2]; 200 ppm): 100% | pest or weed control at 200 ppm ([6]; 200 ppm): 99%

COC(=O)NCc1cc(-c2ccn(-c3ccc(OC)cc3OC)n2)ccc1C [compound 24]
Test B disease control rating ([2]; 200 ppm): 100% | Test C disease control rating ([3]; 200 ppm): 100% | % Cmpd Remaining [1]: 78% | Test E disease control rating ([5]; 200 ppm): 55% | Test A disease control rating ([6]; 200 ppm): 100%

methyl N-[[5-[1-(2,4-dimethylphenyl)-1H-pyrazol-3-yl]-2-methylphenyl]-methyl]carbamate [Compound 66]
Test B disease control rating ([2]; 40 ppm (*)): 100* % | Test C disease control rating ([3]; 40 ppm (*)): 96* % | Test D disease control rating ([4]; 40 ppm (*)): 100* % | Test E disease control rating ([5]; 40 ppm (*)): 99* % | Test A disease control rating ([6]; 40 ppm (*)): 100* %

methyl N-[[5-[1-(4-methoxy-2-methylphenyl)-1H-1,2,4-triazol-3-yl]-2-methylphenyl]methyl]carbamate [Compound 70]
Test B disease control rating ([2]; 200 ppm): 100% | Test C disease control rating ([3]; 200 ppm): 100% | Test D disease control rating ([4]; 200 ppm): 100% | Test E disease control rating ([5]; 200 ppm): 0% | Test A disease control rating ([6]; 200 ppm): 100%

methyl N-[[5-[3-(2,4-dimethoxyphenyl)-1H-pyrazol-1-yl]-2-methylphenyl]methyl]carbamate [Compound 23]
Test B disease control rating ([2]; 200 ppm): 100% | Test C disease control rating ([3]; 200 ppm): 100% | Test D disease control rating ([4]; 200 ppm): 100% | Test E disease control rating ([5]; 200 ppm): 56% | Test A disease control rating ([6]; 200 ppm): 99%

methyl N-[[5-[3-(2,6-dimethoxy-3-pyridinyl)-1H-pyrazol-1-yl]-2-methylphenyl]-methyl]carbamate [Compound 46]
Test B disease control rating ([2]; 40 ppm (*)): 100* % | Test C disease control rating ([3]; 40 ppm (*)): 98* % | Test D disease control rating ([4]; 40 ppm (*)): 100* % | Test E disease control rating ([5]; 40 ppm (*)): 92* % | Test A disease control rating ([6]; 40 ppm (*)): 98* %

methyl N-[[5-[4-(2,4-dimethylphenyl)-2H-1,2,3-triazol-2-yl]-2-methylphenyl]-methyl]carbamate [Compound 91]
Test B disease control rating ([2]; 40 ppm (*)): 100* % | Test C disease control rating ([3]; 40 ppm (*)): 92* % | Test D disease control rating ([4]; 40 ppm (*)): 100* % | Test E disease control rating ([5]; 40 ppm (*)): 33* % | Test A disease control rating ([6]; 40 ppm (*)): 100* %
